Experimental data: ChEMBL document CHEMBL5614417, “Discovery of AMPs from random peptides via deep learning-based model and biological activity validation” (Eur J Med Chem, 2024)
Where a SMILES comes first, the peptide text is derived from it.

How the values were obtained:
Assay type in all cases: functional
Acinetobacter baumannii [1] = test: Antibacterial activity against Acinetobacter baumannii ATCC 19606 incubated for 18 hrs by visual inspection method
Staphylococcus aureus = test: Antibacterial activity against Staphylococcus aureus ATCC 25923 incubated for 18 hrs by visual inspection method
Bacillus subtilis = test: Antibacterial activity against Bacillus subtilis ATCC 23857 incubated for 18 hrs by visual inspection method
Escherichia coli [2] = test: Antibacterial activity against Escherichia coli ATCC 25922 incubated for 18 hrs by visual inspection method
Klebsiella pneumoniae = test: Antibacterial activity against Klebsiella pneumoniae ATCC 700603 incubated for 18 hrs by visual inspection method
[3] = system: Staphylococcus epidermidis; test: Antibacterial activity against Staphylococcus epidermidis ATCC 12228 incubated for 18 hrs by visual inspection method
Acinetobacter baumannii [4] = test: Antibacterial activity against multidrug resistant Acinetobacter baumannii 1 incubated for 18 hrs by visual inspection method
Escherichia coli [5] = test: Antibacterial activity against ESBL Escherichia coli 1 incubated for 18 hrs by visual inspection method
Escherichia coli [6] = test: Antibacterial activity against ESBL Escherichia coli 3 incubated for 18 hrs by visual inspection method
Escherichia coli [7] = test: Antibacterial activity against ESBL Escherichia coli 2 incubated for 18 hrs by visual inspection method
Acinetobacter baumannii [8] = test: Antibacterial activity against multidrug resistant Acinetobacter baumannii 5 incubated for 18 hrs by visual inspection method
Escherichia coli [9] = test: Antibacterial activity against ESBL Escherichia coli 5 incubated for 18 hrs by visual inspection method
Acinetobacter baumannii [10] = test: Antibacterial activity against multidrug resistant Acinetobacter baumannii 4 incubated for 18 hrs by visual inspection method
Escherichia coli [11] = test: Antibacterial activity against ESBL Escherichia coli 4 incubated for 18 hrs by visual inspection method
Acinetobacter baumannii [12] = test: Antibacterial activity against multidrug resistant Acinetobacter baumannii 3 incubated for 18 hrs by visual inspection method
Acinetobacter baumannii [13] = test: Antibacterial activity against multidrug resistant Acinetobacter baumannii 2 incubated for 18 hrs by visual inspection method

Compound	MIC (Acinetobacter baumannii [1])	MIC (Staphylococcus aureus)	MIC (Bacillus subtilis)	MIC (Escherichia coli [2])	MIC (Klebsiella pneumoniae)	MIC [3]	MIC (Acinetobacter baumannii [4])	MIC (Escherichia coli [5])	MIC (Escherichia coli [6])	MIC (Escherichia coli [7])	MIC (Acinetobacter baumannii [8])	MIC (Escherichia coli [9])	MIC (Acinetobacter baumannii [10])	MIC (Escherichia coli [11])	MIC (Acinetobacter baumannii [12])	MIC (Acinetobacter baumannii [13])
CC(C)C[C@H](NC(=O)[C@H](CCCCN)NC(=O)[C@H](CS)NC(=O)[C@H](CS)NC(=O)[C@@H](NC(=O)CNC(=O)[C@@H](NC(=O)[C@H](Cc1ccccc1)NC(=O)[C@H](CCC(N)=O)NC(=O)[C@H](CS)NC(=O)[C@@H](N)Cc1c[nH]c2ccccc12)C(C)C)C(C)C)C(=O)N[C@@H](CS)C(=O)N[C@H](C(N)=O)C(C)C (H-WCQFVGVCCKLCV-NH2)	> 60 µg/mL	> 60 µg/mL	> 60 µg/mL	> 60 µg/mL	> 60 µg/mL	> 60 µg/mL	–	–	–	–	–	–	–	–	–	–
CC[C@H](C)[C@H](NC(=O)[C@H](CC(C)C)NC(=O)[C@H](CS)NC(=O)[C@@H]1CCCN1C(=O)[C@H](CC(C)C)NC(=O)[C@@H](NC(=O)[C@H](CS)NC(=O)[C@H](Cc1ccccc1)NC(=O)[C@@H](N)Cc1c[nH]c2ccccc12)[C@@H](C)CC)C(=O)N[C@@H](Cc1ccccc1)C(=O)N[C@@H](CCCCN)C(=O)N[C@@H](Cc1c[nH]c2ccccc12)C(=O)N[C@@H](CCC(N)=O)C(N)=O (H-WFCILPCLIFKWQ-NH2)	> 60 µg/mL	> 60 µg/mL	> 60 µg/mL	> 60 µg/mL	> 60 µg/mL	> 60 µg/mL	–	–	–	–	–	–	–	–	–	–
CC[C@H](C)[C@H](NC(=O)[C@@H](N)Cc1c[nH]c2ccccc12)C(=O)N[C@@H](Cc1c[nH]c2ccccc12)C(=O)N[C@H](C(=O)N[C@@H](Cc1ccccc1)C(=O)N[C@@H](CCCCN)C(=O)N[C@@H](Cc1c[nH]cn1)C(=O)N[C@@H](CC(C)C)C(=O)NCC(=O)N[C@@H](CS)C(=O)N[C@@H](CCC(N)=O)C(=O)N[C@@H](CCCCN)C(=O)N[C@@H](CCC(N)=O)C(N)=O)[C@@H](C)O (H-WIWTFKHLGCQKQ-NH2)	> 60 µg/mL	> 60 µg/mL	> 60 µg/mL	> 60 µg/mL	> 60 µg/mL	> 60 µg/mL	–	–	–	–	–	–	–	–	–	–
CC[C@H](C)[C@H](NC(=O)[C@H](CCCNC(=N)N)NC(=O)[C@H](Cc1c[nH]c2ccccc12)NC(=O)[C@@H](NC(=O)[C@H](Cc1c[nH]cn1)NC(=O)[C@H](Cc1c[nH]c2ccccc12)NC(=O)[C@@H](N)Cc1c[nH]c2ccccc12)[C@@H](C)CC)C(=O)N[C@@H](CO)C(=O)N[C@@H](CCSC)C(=O)N[C@@H](Cc1c[nH]c2ccccc12)C(=O)N[C@@H](CCSC)C(=O)N[C@@H](CS)C(=O)NCC(N)=O (H-WWHIWRISMWMCG-NH2)	> 60 µg/mL	> 60 µg/mL	> 60 µg/mL	> 60 µg/mL	> 60 µg/mL	> 60 µg/mL	–	–	–	–	–	–	–	–	–	–
POLYMYXIN B	1.88 µg/mL	–	–	1.88 µg/mL	1.88 µg/mL	–	1.88 µg/mL	1.88 µg/mL	1.88 µg/mL	1.88 µg/mL	1.88 µg/mL	1.88 µg/mL	1.88 µg/mL	1.88 µg/mL	1.88 µg/mL	1.88 µg/mL

Continued, in another order:

MIC (Acinetobacter baumannii [1])	MIC (Staphylococcus aureus)	MIC (Bacillus subtilis)	MIC (Escherichia coli [2])	MIC (Klebsiella pneumoniae)	MIC [3]	Compound	MIC (Acinetobacter baumannii [4])	MIC (Escherichia coli [5])	MIC (Escherichia coli [6])	MIC (Escherichia coli [7])	MIC (Acinetobacter baumannii [8])	MIC (Escherichia coli [9])	MIC (Acinetobacter baumannii [10])	MIC (Escherichia coli [11])	MIC (Acinetobacter baumannii [12])	MIC (Acinetobacter baumannii [13])
> 60 µg/mL	> 60 µg/mL	> 60 µg/mL	> 60 µg/mL	> 60 µg/mL	> 60 µg/mL	CC[C@H](C)[C@H](NC(=O)[C@H](CCCCN)NC(=O)[C@H](Cc1c[nH]c2ccccc12)NC(=O)[C@H](C)NC(=O)[C@@H]1CCCN1C(=O)[C@H]1CCCN1C(=O)[C@@H](CC(C)C)NC(=O)[C@H](N)C(C)C)C(=O)N[C@@H](CCCCN)C(=O)N[C@@H](CCCCN)C(=O)NCC(=O)N[C@@H](Cc1ccccc1)C(=O)N[C@@H](CCC(N)=O)C(N)=O	–	–	–	–	–	–	–	–	–	–
> 60 µg/mL	> 60 µg/mL	> 60 µg/mL	> 60 µg/mL	> 60 µg/mL	> 60 µg/mL	CC[C@H](C)[C@H](N)C(=O)N[C@H](C(=O)N[C@@H](Cc1ccccc1)C(=O)N[C@@H](CC(C)C)C(=O)N[C@H](C(=O)N[C@@H](CO)C(=O)NCC(=O)N[C@@H](Cc1ccccc1)C(=O)N[C@@H](CCCCN)C(=O)N[C@@H](CS)C(=O)N[C@@H](Cc1ccccc1)C(=O)N[C@@H](CCCCN)C(=O)NCC(N)=O)[C@@H](C)CC)C(C)C (H-IVFLISGFKCFKG-NH2)	–	–	–	–	–	–	–	–	–	–
> 60 µg/mL	> 60 µg/mL	> 60 µg/mL	> 60 µg/mL	> 60 µg/mL	> 60 µg/mL	CC[C@H](C)[C@H](NC(=O)CNC(=O)[C@@H](NC(=O)[C@H](Cc1ccccc1)NC(=O)[C@@H](NC(=O)[C@H](Cc1c[nH]cn1)NC(=O)[C@H](Cc1c[nH]c2ccccc12)NC(=O)[C@@H](NC(=O)[C@@H]1CCCN1)[C@@H](C)O)[C@@H](C)CC)[C@@H](C)CC)C(=O)N[C@@H](Cc1c[nH]c2ccccc12)C(=O)N[C@@H](CO)C(=O)N[C@@H](CS)C(=O)N[C@@H](Cc1c[nH]c2ccccc12)C(N)=O (H-PTWHIFIGIWSCW-NH2)	–	–	–	–	–	–	–	–	–	–
> 60 µg/mL	> 60 µg/mL	> 60 µg/mL	> 60 µg/mL	> 60 µg/mL	> 60 µg/mL	CSCC[C@H](NC(=O)[C@H](Cc1c[nH]c2ccccc12)NC(=O)[C@H](CCSC)NC(=O)[C@H](Cc1c[nH]c2ccccc12)NC(=O)[C@@H](NC(=O)[C@H](Cc1c[nH]c2ccccc12)NC(=O)[C@H](Cc1c[nH]c2ccccc12)NC(=O)[C@H](CCSC)NC(=O)[C@H](CCCCN)NC(=O)[C@H](CS)NC(=O)CNC(=O)[C@H](Cc1ccccc1)NC(=O)[C@@H](N)CO)C(C)C)C(N)=O (H-SFGCKMWWVWMWM-NH2)	–	–	–	–	–	–	–	–	–	–
> 60 µg/mL	> 60 µg/mL	> 60 µg/mL	> 60 µg/mL	> 60 µg/mL	> 60 µg/mL	CC[C@H](C)[C@H](NC(=O)[C@H](C)NC(=O)[C@H](Cc1c[nH]c2ccccc12)NC(=O)[C@H](CCCCN)NC(=O)[C@H](C)NC(=O)CNC(=O)[C@@H](NC(=O)[C@@H](N)CO)[C@@H](C)CC)C(=O)N[C@@H](Cc1c[nH]c2ccccc12)C(=O)N[C@@H](Cc1c[nH]c2ccccc12)C(=O)N[C@@H](Cc1c[nH]c2ccccc12)C(=O)N[C@@H](CCSC)C(=O)N[C@H](C(N)=O)C(C)C (H-SIGAKWAIWWWMV-NH2)	–	–	–	–	–	–	–	–	–	–
–	1.88 µg/mL	3.75 µg/mL	–	–	3.75 µg/mL	GRAMICIDIN	–	–	–	–	–	–	–	–	–	–
